The results in this text go back to PubChem BioAssay AID1259407 (Chemical Carcinogenesis Research Information System (CCRIS), 2018).

The data set relates to CCRIS mutagenicity, Ames/micronucleus/aberration tests. The data set is described as follows: CCRIS mutagenicity studies. As to conditions: Test System: AMES SALMONELLA TYPHIMURIUM
Where [1] appears, read: Strain/Indicator: TA98, Metabolic Activation: NONE, Method: STANDARD PLATE.
The mark [2] stands for this setting: Strain/Indicator: TA100, Metabolic Activation: NONE, Method: STANDARD PLATE.

Activity calls are given as the source filed them. No rule for the calls is given here.

For the compound `COc1c(C(C)(C)C)cc([N+](=O)[O-])c(C)c1[N+](=O)[O-]`, the mutagenic call (Strain/Indicator: TA98, Metabolic Activation: HAMSTER, LIVER, S-9, AROCLOR 1254 (10%), Method: PREINCUBATION) is “inactive; negative”; the mutagenic call (Strain/Indicator: TA98, Metabolic Activation: NONE, Method: PREINCUBATION) is “inactive; negative”; the mutagenic call under setting [1] was “inactive; negative”; the mutagenic call (Strain/Indicator: TA98, Metabolic Activation: RAT, LIVER, AROCLOR 1254, Method: STANDARD PLATE) was “inactive; negative”; the mutagenic call (Strain/Indicator: TA98, Metabolic Activation: RAT, LIVER, S-9, AROCLOR 1254 (10%), Method: PREINCUBATION) was “inactive; negative”; the mutagenic call (Strain/Indicator: TA98, Metabolic Activation: RAT, LIVER, S-9, AROCLOR 1254, Method: PREINCUBATION) was “inactive; negative”. For the same compound, the mutagenic call is “inactive; negative” (Strain/Indicator: TA98, Metabolic Activation: RAT, LIVER, S-9, AROCLOR 1254, Method: STANDARD PLATE); “inactive; negative” (Strain/Indicator: TA100 (NR), Metabolic Activation: NONE, Method: STANDARD PLATE); “inactive; negative” (Strain/Indicator: TA100(NR), Metabolic Activation: RAT LIVER S-9, AROCLOR 1254, Method: STANDARD PLATE); “inactive; negative” (Strain/Indicator: TA100, Metabolic Activation: HAMSTER, LIVER, S-9, AROCLOR 1254 (10%), Method: PREINCUBATION); “inactive; negative” (Strain/Indicator: TA100, Metabolic Activation: NONE, Method: PREINCUBATION); “inactive; negative” under setting [2]. Besides, the mutagenic call reads like this: (Strain/Indicator: TA100, Metabolic Activation: RAT LIVER S-9, AROCLOR 1254, Method: STANDARD PLATE) “active; positive”; (Strain/Indicator: TA100, Metabolic Activation: RAT, LIVER, S-9, AROCLOR 1254 (10%), Method: PREINCUBATION) “inactive; negative”; (Strain/Indicator: TA100, Metabolic Activation: RAT, LIVER, S-9, AROCLOR 1254, Method: PREINCUBATION) “active; positive”; (Strain/Indicator: TA100, Metabolic Activation: RAT, LIVER, S-9, AROCLOR 1254, Method: STANDARD PLATE) “active; positive”; (Strain/Indicator: TA1535, Metabolic Activation: HAMSTER, LIVER, S-9, AROCLOR 1254 (10%), Method: PREINCUBATION) “inactive; negative”; (Strain/Indicator: TA1535, Metabolic Activation: NONE, Method: PREINCUBATION) “inactive; negative”. In addition, the mutagenic call was “inactive; negative” (Strain/Indicator: TA1535, Metabolic Activation: RAT, LIVER, S-9, AROCLOR 1254 (10%), Method: PREINCUBATION); “inactive; negative” (Strain/Indicator: TA1537, Metabolic Activation: HAMSTER, LIVER, S-9, AROCLOR 1254 (10%), Method: PREINCUBATION); “inactive; negative” (Strain/Indicator: TA1537, Metabolic Activation: NONE, Method: PREINCUBATION); “inactive; negative” (Strain/Indicator: TA1537, Metabolic Activation: RAT, LIVER, S-9, AROCLOR 1254 (10%), Method: PREINCUBATION).
In the case of `COc1cc([C@H]2OC[C@H]3[C@@H]2CO[C@@H]3c2cc(OC)c(OC)c(OC)c2)cc(OC)c1OC`, the mutagenic call (Strain/Indicator: TA97A, Metabolic Activation: NONE, Method: STANDARD PLATE) was “inactive; negative”; the mutagenic call (Strain/Indicator: TA97A, Metabolic Activation: RAT LIVER S-9 (AROCLOR), Method: STANDARD PLATE) is “inactive; negative”; the mutagenic call under setting [1] was “inactive; negative”; the mutagenic call (Strain/Indicator: TA98, Metabolic Activation: RAT LIVER S-9 (AROCLOR), Method: STANDARD PLATE) was “inactive; negative”; the mutagenic call under setting [2] was “inactive; negative”; the mutagenic call (Strain/Indicator: TA100, Metabolic Activation: RAT LIVER S-9 (AROCLOR), Method: STANDARD PLATE) is “inactive; negative”. Moreover, the mutagenic call is, setting by setting: (Strain/Indicator: TA102, Metabolic Activation: NONE, Method: STANDARD PLATE) “inactive; negative”; (Strain/Indicator: TA102, Metabolic Activation: RAT LIVER S-9 (AROCLOR), Method: STANDARD PLATE) “inactive; negative”; (Strain/Indicator: TA1535, Metabolic Activation: NONE, Method: STANDARD PLATE) “inactive; negative”; (Strain/Indicator: TA1535, Metabolic Activation: RAT LIVER S-9 (AROCLOR), Method: STANDARD PLATE) “inactive; negative”.
As to `COc1ccc(-c2nc(-c3ccccc3)c(-c3ccccc3)[nH]2)cc1OC`, the mutagenic call is “active; positive” under setting [1]; “active; positive” under setting [2]; “active; positive” (Strain/Indicator: TA100, Metabolic Activation: RAT LIVER S-9, 3-METHYLCHOLANTHRENE, SODIUM PHENOBARBITAL, Method: STANDARD PLATE).
